For three compounds, IC50 results are on record in BindingDB's records for patent US10961200 (Department Of Health And Human Services, 2021).

pIC50: −log10 of the molar value. Bounds are passed on as bounds.

For the assay, the target named is L-lactate dehydrogenase A chain (Homo sapiens, UniProt P00338). Description: Biochemical Assay. From the text: Test compounds were placed in a Greiner Bio-One (Monroe, N.C.) 1536-well black solid bottom assay plate. 200 millimolar (mM) Tris HCl, pH 7.4, 100 micromolar (M) EDTA and 0.01% TWEEN-20 , final concentration, was used as the assay buffer. The LDHA reagent was 2 nanomolar (nM) Human LDHA (Meridian Life Science, Inc., Memphis, Tenn.), final concentration, in assay buffer.

As usually defined, the pIC50 is the negative decadic logarithm of the IC50, by convention in mol/L. Low readings indicate a high IC50, high ones a low IC50. As for `NS(=O)(=O)c1ccc(Cc2c(-c3cccc(Nc4ccccc4)c3)nn(-c3nc(C(=O)O)cs3)c2CC2CC2)cc1` [US10961200, Compound 485], the pIC50 is over 7.00.
Compound `CC(C)Oc1cccc(-c2nn(-c3nc(C(=O)O)cs3)c(CC3CC3)c2Cc2ccc(S(N)(=O)=O)cc2)c1` [US10961200, Compound 504] showed a pIC50 of over 7.00.
`NS(=O)(=O)c1ccc(Cc2cn(-c3nc(C(=O)O)cs3)nc2-c2ccc(F)c(-c3ccccc3)c2)cc1` [US10961200, Compound 515] showed a pIC50 of over 7.00.
